Laboratory results taken from BindingDB's records for doi:10.1021/jm00157a007 (1987).

Molecular target: Chymotrypsinogen A (Bos taurus) (UniProt P00766)
Experiment: In vitro binding affinity towards alpha-chymotrypsin from bovine pancreas.

Compound | Ki
CCCCc1ccc(=O)oc1Cl [5-Butyl-6-chloro-pyran-2-one] | 3.9 µM
O=c1oc(Cl)ccc1-c1ccccc1 [6-Chloro-3-phenyl-pyran-2-one] | 0.27 µM
O=c1ccc(-c2ccccc2)c(Cl)o1 [6-Chloro-5-phenyl-pyran-2-one] | 1.3 µM
O=c1ccc(-c2ccccc2)co1 [5-Phenyl-pyran-2-one] | 75 µM
CCc1ccc(=O)oc1Cl [6-Chloro-5-ethyl-pyran-2-one] | 5.6 µM
